Where only a bound is given, the exact number is not on record here.

This test addresses T1, CRTH2 receptor (Homo sapiens, UniProt Q9Y5Y4).
T1 construct: host or cells: CHO-K1 (PathHunter β-arrestin line)
T1 sequence (Q9Y5Y4 1-395): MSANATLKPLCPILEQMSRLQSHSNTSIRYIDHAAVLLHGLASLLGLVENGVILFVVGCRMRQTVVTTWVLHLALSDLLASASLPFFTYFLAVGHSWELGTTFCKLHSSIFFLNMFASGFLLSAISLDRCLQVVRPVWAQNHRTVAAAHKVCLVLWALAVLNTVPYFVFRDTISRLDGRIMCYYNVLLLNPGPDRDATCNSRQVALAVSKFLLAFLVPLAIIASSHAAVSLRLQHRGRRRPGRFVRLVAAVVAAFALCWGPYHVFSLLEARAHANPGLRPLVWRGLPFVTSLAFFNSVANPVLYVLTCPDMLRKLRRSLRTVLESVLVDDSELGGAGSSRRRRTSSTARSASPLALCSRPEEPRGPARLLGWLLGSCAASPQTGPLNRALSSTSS
The test can be described thus: PathHunter CHO-K1 CRTH2 β-arrestin assay (DiscoverX), antagonism of PGD2. It counts as cell-based. The settings on record: PathHunter CHO-K1 CRTH2 β-arrestin cells; compound 30 min, then EC80 agonist (PGD2) 90 min, 37° C.; chemiluminescent signal. Here is the method: DiscoverX Corporation in the U.S was entrusted to complete this experiment by β-arrestin assay. The experimental method and results were listed below: PathHunter® CHO-K1 CRTH2 β-arrestin cells (DiscoverX, catalogue number 93-0291C2) grew under standard conditions, and were inoculated into a white-wall 384-well microplate at a density of 5,000 cells/well. 20 μL of Cell Plating Reagent 1 was used in each well. Before the test, the cells were incubated overnight at 37° C./5% CO2. A test compound was serially diluted in DMSO with a dilution factor of 3-fold to give 8 concentrations of the test compound. Shortly before the test, the serially diluted test compound was further diluted with the test buffer to 5 times of the test concentration. 5 μL of the further diluted test compound was added to the cells, and the cells were incubated for 30 min at 37° C. The concentration of the solvent was 1%. 5 μL of 6× EC80 agonist (PGD2) buffer was added to the cells, and the cells were incubated for 90 min at 37° C. Measured signals were generated by one-time addition of 15 μL (50% v/v) of PathHunter detection mixture reagent and subsequent one-hour incubation. The microplate was read through the chemiluminescent signals of PerkinElmer Envision™ reader. Biological activity of the test compound was analyzed by CBIS data analysis suite (ChemInnovation, CA), and was denoted as IC50 value.
In general, IC50 refers to the concentration needed to halve the response being measured. Low values mean inhibition by little substance, high ones a need for much substance. The compound `CS(=O)(=O)c1ccc(Cc2c3n(c4ccccc24)CC(C(=O)O)CC3)c(C(F)(F)F)c1` (single isomer, unassigned) [Example 16 peak1] came in with an IC50 above 1000 nM.
In the case of `CS(=O)(=O)c1ccc(Cc2c3n(c4ccccc24)CC(C(=O)O)CC3)c(C(F)(F)F)c1` (single isomer, unassigned) [Example 16 peak2] it was below 100 nM; in that of `CS(=O)(=O)c1ccc(Cc2c3n(c4ccc(Cl)cc24)CC(C(=O)O)CC3)c(C(F)(F)F)c1` (single isomer, unassigned) [Example 22 peak1], below 100 nM; in that of `CS(=O)(=O)c1ccc(Cc2c3n(c4ccc(Cl)cc24)CC(C(=O)O)CC3)c(C(F)(F)F)c1` (single isomer, unassigned) [Example 22 peak2], above 1000 nM.
With `CS(=O)(=O)c1ccc(Cc2c3n(c4ccc(F)cc24)CC(C(=O)O)CC3)c(C(F)(F)F)c1` (single isomer, unassigned) [Example 25 peak1] the figure was 100 to 1000 nM; with `CS(=O)(=O)c1ccc(Cc2c3n(c4ccc(F)cc24)CC(C(=O)O)CC3)c(C(F)(F)F)c1` (single isomer, unassigned) [Example 25 peak2], below 100 nM; with `CS(=O)(=O)c1ccc(Cc2c3n(c4ccccc24)C(C(=O)O)CCC3)cc1` (stereo not shown) [Example 1], above 1000 nM.
In the case of `O=C(O)C1CCCc2c(Cc3cccnc3S(=O)(=O)c3ccccc3)c3ccccc3n21` (stereo not shown) [Example 2] it was 100 to 1000 nM; in that of `CS(=O)(=O)c1ccc(Cc2c3n(c4ccccc24)C(C(=O)O)CCC3)c(C(F)(F)F)c1` (stereo not shown) [Example 6], 100 to 1000 nM.
Regarding `CS(=O)(=O)c1ccc(Cc2c3n(c4ccccc24)C(CC(=O)O)CCC3)cc1` (stereo not shown) [Example 7], the IC50 is above 1000 nM.
In the case of `CS(=O)(=O)c1ccc(Cc2c3n(c4ccccc24)C(CC(=O)O)CCC3)c(C(F)(F)F)c1` (stereo not shown) [Example 8] it was above 1000 nM; in that of `CS(=O)(=O)c1ccc(Cc2c3n(c4ccccc24)CC(CC(=O)O)CC3)cc1` (stereo not shown) [Example 9], above 1000 nM; in that of `O=C(O)CC1CCc2c(Cc3ccc4ccccc4n3)c3ccccc3n2C1` (stereo not shown) [Example 10], above 1000 nM.
In the case of `O=C(O)CC1CCc2c(Cc3cccnc3S(=O)(=O)c3ccccc3)c3ccccc3n2C1` (stereo not shown) [Example 11] it was above 1000 nM; in that of `CS(=O)(=O)c1ccc(Cc2c3n(c4ccccc24)CC(CC(=O)O)CC3)c(C(F)(F)F)c1` (stereo not shown) [Example 15], above 1000 nM; in that of `CS(=O)(=O)c1ccc(Cc2c3n(c4ccccc24)CC(C(=O)O)CC3)c(C(F)(F)F)c1` (stereo not shown) [Example 16], below 100 nM.
In the case of `O=C(O)C1CCc2c(Cc3cccnc3S(=O)(=O)c3ccc(Cl)cc3)c3ccccc3n2C1` (stereo not shown) [Example 17] it was 100 to 1000 nM.
Turning to `CC1(C(=O)O)CCc2c(Cc3ccc(S(C)(=O)=O)cc3C(F)(F)F)c3ccccc3n2C1` (stereo not shown) [Example 18], the half-maximal inhibitory concentration (IC50) is above 1000 nM.
With `CC1(C(=O)O)CCc2c(Cc3ccc(C(F)(F)F)nc3)c3ccccc3n2C1` (stereo not shown) [Example 20] the figure was above 1000 nM; with `CC1(C(=O)O)CCc2c(Cc3ccc(S(C)(=O)=O)cc3F)c3ccccc3n2C1` (stereo not shown) [Example 21], above 1000 nM.
With `CS(=O)(=O)c1ccc(Cc2c3n(c4ccc(Cl)cc24)CC(C(=O)O)CC3)c(C(F)(F)F)c1` (stereo not shown) [Example 22] the figure was below 100 nM; with `CS(=O)(=O)c1ccc(Cc2c3n(c4ccc(Cl)cc24)CC(C(=O)O)CC3)c(F)c1` (stereo not shown) [Example 23], 100 to 1000 nM.
In the case of `O=C(O)C1CCc2c(Cc3ccc4c(c3)CCS4(=O)=O)c3cc(Cl)ccc3n2C1` (stereo not shown) [Example 24], the 50% inhibitory concentration (IC50) is above 1000 nM.
In turn, `CS(=O)(=O)c1ccc(Cc2c3n(c4ccc(F)cc24)CC(C(=O)O)CC3)c(C(F)(F)F)c1` (stereo not shown) [Example 25] displayed a half-inhibitory concentration (IC50) below 100 nM.
With `CS(=O)(=O)c1ccc(Cc2c3n(c4ccc(F)cc24)CC(C(=O)O)CC3)c(F)c1` (stereo not shown) [Example 26] the figure was 100 to 1000 nM.
In the case of `O=C(O)C1CCc2c(Cc3ccc4ccccc4n3)c3cc(F)ccc3n2C1` (stereo not shown) [Example 27] it was above 1000 nM.
In the case of `O=C(O)C1CCc2c(Cc3ccc4c(c3)CCS4(=O)=O)c3cc(F)ccc3n2C1` (stereo not shown) [Example 28] it was above 1000 nM.
Take `CS(=O)(=O)c1ccc(Cc2c3ccccc3n3cc(C(=O)O)ncc23)cc1` [Example 29]: the IC50 was above 1000 nM.
`CS(=O)(=O)c1ccc(Cc2c3ccccc3n3cc(C(=O)O)ncc23)cn1` [Example 30] displayed a 50% inhibitory concentration (IC50) above 1000 nM.
With `CS(=O)(=O)c1ccc(Cc2c3ccccc3n3cc(C(=O)O)ncc23)c(C(F)(F)F)c1` [Example 31] the figure was above 1000 nM.
In the case of `CS(=O)(=O)c1ccc(Cc2c3n(c4ccccc24)CC(C(=O)O)C3)c(C(F)(F)F)c1` (stereo not shown) [Example 32] it was 100 to 1000 nM.
In the case of `O=C(O)C1CCc2c(Cc3ccc4c(c3)C(F)C(F)(F)S4(=O)=O)c3cc(F)ccc3n2C1` (stereo not shown) [Example 33] it was above 1000 nM; in that of `COc1ccc2c(c1)c(Cc1ccc(S(C)(=O)=O)cc1C(F)(F)F)c1n2CC(C(=O)O)CC1` (stereo not shown) [Example 34], below 100 nM.
`CS(=O)(=O)c1ccc(Cc2c3n(c4ccc(OC(F)F)cc24)CC(C(=O)O)CC3)c(C(F)(F)F)c1` (stereo not shown) [Example 35] displayed a 50% inhibitory concentration (IC50) below 100 nM.
In the case of `O=C(O)C1CCc2c(Cc3cc4c(cc3C(F)(F)F)S(=O)(=O)CC4)c3cc(F)ccc3n2C1` (stereo not shown) [Example 36] it was above 1000 nM; in that of `O=C(O)C1CCc2c(Cc3cc4c(cc3C(F)(F)F)S(=O)(=O)CC4)c3cc(Cl)ccc3n2C1` (stereo not shown) [Example 37], above 1000 nM; in that of `O=C(O)C1CCc2c(Cc3cccc4c3CCS4(=O)=O)c3cc(F)ccc3n2C1` (stereo not shown) [Example 38], above 1000 nM.
For the compound `CS(=O)(=O)c1ccc(Cc2c3n(c4ccccc24)CC(C(=O)O)CC3)nc1` (stereo not shown) [Example 39], the IC50 was above 1000 nM.
With `COc1cc(C(F)(F)F)c(Cc2c3n(c4ccccc24)CC(C(=O)O)CC3)cn1` (stereo not shown) [Example 40] the figure was above 1000 nM; with `CS(=O)(=O)c1ccc(Cc2c3n(c4ccccc24)CC(C(=O)O)CC3)cn1` (stereo not shown) [Example 41], above 1000 nM; with `CS(=O)(=O)c1ccc(Cc2c3n(c4ncccc24)CC(C(=O)O)CC3)c(C(F)(F)F)c1` (stereo not shown) [Example 42], above 1000 nM.
In the case of `O=C(O)C1CCc2c(Cc3ccc4c(c3)C(F)(F)CCS4(=O)=O)c3cc(F)ccc3n2C1` (stereo not shown) [Example 43] it was above 1000 nM; in that of `O=C(O)C1CCc2c(Cc3ccc4c(c3)S(=O)(=O)CC4)c3cc(F)ccc3n2C1` (stereo not shown) [Example 44], above 1000 nM.

Source of the values: patent US11524958B2, “Tricyclic compound as CRTH2 inhibitor” (CHIA TAI TIANQING PHARMACEUTICAL GROUP CO., LTD., priority 2016, dated 2022).
